Source: patent US20060110401A1, “Mixture of peptides from c and ns3 proteins of the hepatitis c virus and applications thereof” (priority 2002, published 2006)
Like-named read-outs stand apart in the source and are kept apart here. Residues, ends and D or L forms follow the SMILES beside them.

How the values were obtained:
DP401 = test: DP401
DR11 = test: DR11
From the text: (§1) Table printed on a drawing sheet, Figure 2
Where the first naming reader finds the target: head: DR11

HLA-DRB4 (DRB4*0101) = biological target: T1, HLA-DRB4 (DRB4*0101) (Homo sapiens, UniProt P01903+P13762, G164S); test: biochemical; format: binding; details: read-out: binds with good affinity to DRB4
T1 construct: endogenous in cells; host or cells: homozygous EBV-transformed human B lymphocyte lines; immunopurified with antibody L243

HLA-DR1 (DRB1*0101) = biological target: T2, HLA-DR1 (DRB1*0101) (Homo sapiens, UniProt P01903+P01911, A100R/D57E/F55L/F60I/F76Y/I96L/L162R/M171V/P40L/Q125E/R42F/V115G/Y59C); test: biochemical; format: binding; details: for IC50: DRB1*0101; for affinity for HLA-DR1 (in words): legend of FIG. 4
T2 construct: endogenous in cells; host or cells: homozygous EBV-transformed human B lymphocyte lines; immunopurified with antibody L243

HLA-DRB5 (DRB5*0101) = biological target: T3, HLA-DRB5 (DRB5*0101) (Homo sapiens, UniProt P01903+Q30154); test: biochemical; format: binding; details: read-out: binds with good affinity to DRB5
T3 construct: endogenous in cells; host or cells: homozygous EBV-transformed human B lymphocyte lines; immunopurified with antibody L243

DRB5 = test: DRB5
HLA-DRB3 (DRB3*0101) = biological target: T4, HLA-DRB3 (DRB3*0101) (Homo sapiens, UniProt P01903+P79483); test: HLA II/peptide binding assay, HLA-DRB3; details: read-out: binds with good affinity to DRB3
T4 construct: endogenous in cells; host or cells: homozygous EBV-transformed human B lymphocyte lines; immunopurified with antibody L243

HLA-DR15 (DRB1*1501) = biological target: T5, HLA-DR15 (DRB1*1501) (Homo sapiens, UniProt P01903+P01911); test: biochemical; format: binding; details: DRB1*1501; read-out: binds with good affinity to DR15
T5 construct: endogenous in cells; host or cells: homozygous EBV-transformed human B lymphocyte lines; immunopurified with antibody L243

DR15 = test: DR15
DR7 = test: DR7
DRB3 = test: DRB3
DP402 = test: DP402
HLA-DR7 (DRB1*0701) = HLA-DR7 (DRB1*0701) (Homo sapiens, UniProt P01903+P01911, A100R/A102G/A103Q/D57E/D86V/E43K/F76Y/K127E/L162R/M171V/P40G/Q125H/Q99D/R33Q/R42Y/R54Q/S133A/S66F/T210M/V115G/Y107V/Y59L/Y89S); test: biochemical; format: binding; details: read-out: binds with good affinity to DR7
HLA-DR11 (DRB1*1101) = HLA-DR11 (DRB1*1101) (Homo sapiens, UniProt P01903+P01911, A100R/A169T/A87E/I96F/K41T/L162R/M171V/P40S/Q125H/Q178H/Q39Y/Q99D/R42S/S66Y/T262R/V115G/W38E); test: biochemical; format: binding; details: read-out: binds with good affinity to DR11
HLA-DR11 (DRB1*1101), sequence (P01903 26-254 limits assumed, other chains not shown): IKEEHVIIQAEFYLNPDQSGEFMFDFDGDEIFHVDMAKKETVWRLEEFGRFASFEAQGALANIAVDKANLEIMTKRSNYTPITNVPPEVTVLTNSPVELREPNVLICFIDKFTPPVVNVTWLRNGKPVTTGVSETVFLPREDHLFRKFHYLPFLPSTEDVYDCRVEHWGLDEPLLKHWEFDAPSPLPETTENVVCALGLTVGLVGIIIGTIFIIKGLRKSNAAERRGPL

HLA-DP402 (DPB1*0402) = HLA-DP402 (DPB1*0402) (Homo sapiens, UniProt P04440+P20036, A65V/A84D/A85E/L207M); test: biochemical; format: binding; details: DP*0402; read-out: binds with good affinity to DP402
HLA-DR4 (DRB1*0401) = biological target: T6, HLA-DR4 (DRB1*0401) (Homo sapiens, UniProt P01903+P01911, A100K/A169T/F76Y/I96L/K127E/L162R/M171V/N62H/P40V/Q125Y/R42H/S133A/S149N/S66Y/V115G/V209L/W38E); test: biochemical; format: binding; details: read-out: binds with good affinity to DR4
T6 construct: endogenous in cells; host or cells: homozygous EBV-transformed human B lymphocyte lines; immunopurified with antibody L243

DR3 = test: DR3
From the text: as §1
Where the first naming reader finds the target: head: DR3

HLA-DR13 (DRB1*1301) = HLA-DR13 (DRB1*1301) (Homo sapiens, UniProt P01903+P01911, A100E/A169T/K41T/L162R/M171V/P40S/Q125H/Q178H/Q39Y/Q99D/R42S/S66N/T262R/W38E/Y61H); test: biochemical; format: binding; details: read-out: binds with good affinity to DR13
[1] = system: T lymphocytes derived from PBMCs from patients chronically infected with HCV; format: cell-based, human; details: supernatant 48 h, —: not detected
DRB4 = test: DRB4
From the text: as §1
Where the first naming reader finds the target: head: DRB4

HLA-DR3 (DRB1*0301) = biological target: T7, HLA-DR3 (DRB1*0301) (Homo sapiens, UniProt P01903+P01911, A100K/A102G/A103R/A169T/F55Y/I96L/K41T/L162R/M171V/P40S/Q125H/Q178H/Q39Y/R42S/S66N/T106N/T262R/W38E/Y61H); test: biochemical; format: binding; details: read-out: binds with good affinity to DR3
T7 construct: endogenous in cells; host or cells: homozygous EBV-transformed human B lymphocyte lines; immunopurified with antibody L243

DR13 = test: DR13
From the text: as §1
Where the first naming reader finds the target: head: DR13

DR4 = test: DR4
DR1 = test: DR1
HLA-DP401 (DPB1*0401) = HLA-DP401 (DPB1*0401) (Homo sapiens, UniProt P04440+P20036); test: biochemical; format: binding; details: DP*0401; read-out: binds with good affinity to DP401
[2] = read-out: binds with good affinity to DR1
[3] = competition with biotinylated tracer HA 306-318, read-out: IC50, binding to HLA-DR1

SMILES | IC50 (DP401) | IC50 (DR11) | IC50 (HLA-DRB4 (DRB4*0101)) | IC50 (HLA-DR1 (DRB1*0101); [2]) | IC50 (HLA-DRB5 (DRB5*0101)) | IC50 (DRB5) | IC50 (HLA-DRB3 (DRB3*0101)) | IC50 (HLA-DR15 (DRB1*1501)) | IC50 (DR15) | IC50 (DR7) | IC50 (DRB3) | IC50 (DP402) | IC50 (HLA-DR7 (DRB1*0701)) | IC50 (HLA-DR11 (DRB1*1101)) | IC50 (HLA-DP402 (DPB1*0402)) | IC50 (HLA-DR1 (DRB1*0101); [3]) | affinity for HLA-DR1 (in words) (HLA-DR1 (DRB1*0101)) | IC50 (HLA-DR4 (DRB1*0401)) | IC50 (DR3) | IC50 (HLA-DR13 (DRB1*1301)) | further results
CC[C@H](C)[C@H](NC(=O)CNC(=O)[C@@H]1CCCN1C(=O)[C@@H](N)CCCCN)C(=O)N[C@@H](Cc1ccc(O)cc1)C(=O)N[C@@H](CCCNC(=N)N)C(=O)N[C@@H](Cc1ccccc1)C(=O)N[C@H](C(=O)N[C@@H](C)C(=O)N1CCC[C@H]1C(=O)NCC(=O)N[C@@H](CCC(=O)O)C(=O)N[C@@H](CCCNC(=N)N)C(=O)N1CCC[C@H]1C(=O)N[C@@H](CO)C(=O)NCC(=O)N[C@@H](CCSC)C(=O)N[C@@H](Cc1ccccc1)C(=O)N[C@@H](CC(=O)O)C(=O)O)C(C)C [27N 1495-1513] (H-KPGIYRFVAPGERPSGMFD-OH; N-terminus and C-terminus assumed) | > 100000 nM | 175 nM | < 1000 nM | < 1000 nM | < 1000 nM | 2 nM | < 1000 nM | < 1000 nM | 150 nM | 313 nM | 40000 nM | > 100000 nM | < 1000 nM | < 1000 nM |  |  |  |  |  |  | 
CC[C@H](C)[C@H](NC(=O)[C@H](CCC(=O)O)NC(=O)[C@H](CCCNC(=N)N)NC(=O)CN)C(=O)N[C@@H](CC(C)C)C(=O)N[C@@H](CC(C)C)C(=O)NCC(=O)N1CCC[C@H]1C(=O)N[C@@H](C)C(=O)N[C@@H](CC(=O)O)C(=O)NCC(=O)N[C@@H](CCSC)C(=O)N[C@H](C(=O)N[C@@H](CO)C(=O)N[C@@H](CCCCN)C(=O)NCC(=O)N[C@@H](Cc1c[nH]c2ccccc12)C(=O)N[C@@H](CCCNC(=N)N)C(=O)N[C@@H](CC(C)C)C(=O)N[C@@H](CC(C)C)C(=O)N[C@@H](C)C(=O)N1CCC[C@H]1C(=O)N[C@H](C(=O)N[C@H](C(=O)N[C@@H](C)C(=O)N[C@@H](Cc1ccc(O)cc1)C(=O)N[C@@H](C)C(=O)N[C@@H](CCC(N)=O)C(=O)N[C@@H](CCC(N)=O)C(=O)N[C@H](C(=O)N[C@@H](CCCNC(=N)N)C(=O)O)[C@@H](C)O)[C@@H](C)O)[C@@H](C)CC)C(C)C [8N 1007-1037] | 7200 nM | 1 nM | < 1000 nM | < 1000 nM | < 1000 nM | 2 nM |  | < 1000 nM | 30 nM | 88 nM | 15000 nM | 881 nM | < 1000 nM | < 1000 nM | < 1000 nM | 2 nM | high affinity | < 1000 nM | 200 nM | < 1000 nM | IL10 ([1]; patient 067): 43 pg/mL; IL10 ([1]; patient 078): 41 pg/mL; IC50 (DRB4): 60 nM; IC50 (HLA-DR3 (DRB1*0301)): < 1000 nM
CC[C@H](C)[C@H](NC(=O)[C@@H](NC(=O)[C@H](Cc1ccccc1)NC(=O)[C@@H](NC(=O)[C@@H]1CCCN1C(=O)[C@H](CC(=O)O)NC(=O)[C@H](CC(C)C)NC(=O)[C@H](CO)NC(=O)[C@H](Cc1ccccc1)NC(=O)[C@H](CC(=O)O)NC(=O)[C@@H](NC(=O)[C@@H](NC(=O)[C@H](CCC(N)=O)NC(=O)[C@@H](NC(=O)[C@@H](NC(=O)[C@H](C)NC(=O)[C@@H](N)[C@@H](C)O)C(C)C)[C@@H](C)O)[C@@H](C)O)C(C)C)[C@@H](C)O)[C@@H](C)O)C(=O)N[C@@H](CCC(=O)O)C(=O)N[C@H](C(=O)N[C@H](C(=O)N[C@H](C(=O)N[C@@H](CC(C)C)C(=O)N1CCC[C@H]1C(=O)N[C@@H](CCC(N)=O)C(=O)N[C@@H](CC(=O)O)C(=O)N[C@@H](C)C(=O)O)[C@@H](C)O)[C@@H](C)CC)[C@@H](C)O [26N 1456-1481] |  |  | < 1000 nM | < 1000 nM | < 1000 nM |  | < 1000 nM | < 1000 nM |  | 20 nM | 40 nM |  | < 1000 nM | < 1000 nM |  |  |  | < 1000 nM |  | < 1000 nM | IC50 (DR13): 300 nM; IC50 (DR4): 8 nM; IC50 (HLA-DR3 (DRB1*0301)): < 1000 nM; IC50 (DR1): 2 nM
CC(C)C[C@H](NC(=O)[C@H](CCCNC(=N)N)NC(=O)[C@@H]1CCCN1C(=O)CNC(=O)[C@H](CCCNC(=N)N)NC(=O)[C@H](CCCNC(=N)N)NC(=O)[C@@H]1CCCN1C(=O)[C@H](CC(C)C)NC(=O)[C@H](CC(C)C)NC(=O)[C@H](Cc1ccc(O)cc1)NC(=O)[C@@H](NC(=O)CNC(=O)CNC(=O)[C@@H](N)C(C)C)C(C)C)C(=O)NCC(=O)N[C@H](C(=O)N[C@@H](CCCNC(=N)N)C(=O)N[C@@H](C)C(=O)N[C@H](C(=O)N[C@@H](CCCNC(=N)N)C(=O)N[C@@H](CCCCN)C(=O)N[C@H](C(=O)N[C@@H](CO)C(=O)N[C@@H](CCC(=O)O)C(=O)N[C@@H](CCCNC(=N)N)C(=O)N[C@@H](CO)C(=O)N[C@@H](CCC(N)=O)C(=O)O)[C@@H](C)O)[C@@H](C)O)C(C)C [2C 31-57] | > 100000 nM |  |  |  |  | 3 nM |  |  |  | 500 nM | > 100000 nM | > 100000 nM |  |  | < 1000 nM |  |  |  | > 100000 nM |  | IC50 (HLA-DP401 (DPB1*0401)): < 1000 nM
CSCC[C@H](NC(=O)[C@H](Cc1ccc(O)cc1)NC(=O)[C@H](C)NC(=O)[C@H](CCCNC(=N)N)NC(=O)[C@H](CC(C)C)NC(=O)[C@H](CCCNC(=N)N)NC(=O)[C@@H](NC(=O)[C@@H](NC(=O)[C@@H](NC(=O)[C@H](CCC(=O)O)NC(=O)[C@H](C)NC(=O)[C@@H]1CCCN1C(=O)[C@@H](NC(=O)[C@H](CC(C)C)NC(=O)[C@H](CCC(=O)O)NC(=O)[C@H](Cc1ccc(O)cc1)NC(=O)[C@H](Cc1c[nH]c2ccccc12)NC(=O)[C@H](C)NC(=O)[C@H](C)NC(=O)CN)[C@@H](C)O)[C@@H](C)O)[C@@H](C)O)C(C)C)C(=O)N[C@@H](CC(N)=O)C(=O)N[C@H](C(=O)N1CCC[C@H]1C(=O)NCC(=O)N[C@@H](CC(C)C)C(=O)N1CCC[C@H]1C(=O)N[C@H](C(=O)N[C@@H](C)C(=O)N[C@@H](CCC(N)=O)C(=O)N[C@@H](CC(=O)O)C(=O)O)C(C)C)[C@@H](C)O [28N 1524-1553] |  |  | < 1000 nM | < 1000 nM | < 1000 nM | 20 nM | < 1000 nM | < 1000 nM | 1 nM | 5 nM |  |  | < 1000 nM | < 1000 nM | < 1000 nM | 2 nM | high affinity | < 1000 nM |  |  | IC50 (DR13): 10000 nM; IL2 ([1]; patient 067): — 76 pg/ml; IL10 ([1]; patient 067): 86 pg/mL; IL10 ([1]; patient 078): 21 pg/mL; IL4 ([1]; patient 093): — 11 pg/ml; IL10 ([1]; patient 829): 67 pg/mL; IC50 (DRB4): 30 nM
